Results reported in patent US20250101102A1, “BISPECIFIC ANTIBODY AGAINST CD3 AND CD20 IN COMBINATION THERAPY FOR TREATING DIFFUSE LARGE B-CELL LYMPHOMA” (GENMAB A/S, priority 2022, published 2025).
Where two headings read alike, the source gives them in different places.

Assays:
T cells = assay: T cell viability after pretreatment with CHP components; format: cell-based
[1] = test system: CD20-expressing Raji-luc tumor cells; details: NOD-SCID mice injected with Raji-luc tumor cells and PBMCs; even in the presence of an excess of IgG1-RTX-FEAR; cited from earlier work
[2] = test system: CD20-expressing Daudi cells; details: 333 ng/ml DuoBody-CD3xCD20, 4 donors
Protocol: Briefly, T cells were pre-incubated with cyclophosphamide, doxorubicin, or prednisone for 16 hours and subsequently used in a cytotoxicity assay with epcoritamab and CD20-expressing Daudi cells as target cells (E: T ratio 2:1), in which cyclophosphamide, doxorubicin, or prednisone was added in the same concentration as during pre-incubation, respectively. Data are presented as percent viable target cells (CD4-CD8-CD22+), normalized to medium control (no Ab, no CHP component).

[3] = test system: relapsed or refractory (R/R) B-NHL; highly refractory large B-cell lymphoma; details: cited from earlier work
[4] = test system: primary DLBCL and follicular lymphoma patient biopsies; details: cited from earlier work
[5] = T cells pre-incubated for 16 hours
[6] = highly refractory large B-cell lymphoma, n=157

C[C@]12C=CC(=O)C=C1CC[C@@H]1[C@@H]2C(=O)C[C@@]2(C)[C@H]1CC[C@]2(O)C(=O)CO [prednisone, 17,21-dihydroxypregna-1,4-diene-3,11,20-trione]
T cell viability after pretreatment (T cells; [5]): did not impact T cell viability

epcoritamab: IgG1 bispecific CD3×CD20 antibody; heavy and light chain pairs SEQ ID NOs: 24/25 (CD3ε arm) and 26/27 (CD20 arm); CAS 2134641-34-0
tumor growth in the xenograft model [1]: effectively reduce tumor growth
viable B cells left after incubation ([2]; T cells pretreated with cyclophosphamide, FIG. 1A right panel): very low percentages of viable B cells
viable B cells left after incubation ([2]; T cells pretreated with prednisone, FIG. 1C right panel): very low percentages of viable B cells
complete response (CR) rate [3, 6]: 39%
median duration of response (DOR) [3, 6]: 12 months
overall response rate (ORR) [3, 6]: 63%
safety profile ([3]; in vivo): manageable safety profile
T-cell-mediated cytotoxicity [4]: induced T-cell-mediated cytotoxicity

O=P1(N(CCCl)CCCl)NCCCO1 (centres unmarked) [cyclophosphamide, 2H-1,3,2-Oxazaphosphorin-2-amine, N,N-bis(2-chloroethyl)tetrahydro-, 2-oxide]
T cell viability after pretreatment (T cells): did not impact T cell viability

COc1cccc2c1C(=O)c1c(O)c3c(c(O)c1C2=O)C[C@@](O)(C(=O)CO)C[C@@H]3O[C@H]1C[C@H](N)[C@H](O)[C@H](C)O1 [doxorubicin]
T cell viability after pretreatment (T cells; [5]): reduction in T cell viability
